Data on 25 compounds can be found in US20180338980A1, “AROMATIC SULFONAMIDE DERIVATIVES” (BAYER PHARMA AKTIENGESELLSCHAFT, priority 2015, published 2018).

For assay [1], the target named is T1, P2X4 (Homo sapiens, UniProt Q99571).
T1 sequence (Q99571 1-388): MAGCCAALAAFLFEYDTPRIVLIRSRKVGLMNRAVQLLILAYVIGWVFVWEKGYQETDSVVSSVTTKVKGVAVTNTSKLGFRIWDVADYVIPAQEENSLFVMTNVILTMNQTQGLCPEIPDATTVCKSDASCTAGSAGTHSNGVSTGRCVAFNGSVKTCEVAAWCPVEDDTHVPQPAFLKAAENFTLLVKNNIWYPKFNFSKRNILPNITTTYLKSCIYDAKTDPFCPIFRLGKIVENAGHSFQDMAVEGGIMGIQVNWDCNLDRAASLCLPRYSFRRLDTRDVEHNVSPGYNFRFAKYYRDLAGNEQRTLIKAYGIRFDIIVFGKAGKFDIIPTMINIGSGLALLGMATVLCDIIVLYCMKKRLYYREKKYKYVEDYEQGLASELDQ
Briefly: Assay A: human P2X4 receptor cell line, FLIPR calcium assay (Fluo-8, agonist Bz-ATP at EC80). Format: cell-based. On the set-up: host or cells: HEK 293 (recombinant, constitutively expressing; with mitochondrial photina in Assay B). The settings on record: for IC50: Bz-ATP at EC80, average values; for Emax: read-out: human P2X4 Assay A avg Efficacy. In a few lines:
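Antagonism read as inhibition of the calcium response to EC80 Bz-ATP, by peak-over-basal Fluo-8 fluorescence over 120 s, normalized to DMSO wells. Human P2X4-HEK cells, dye-loaded 30 min in probenecid-containing HBSS/HEPES pH 7.4, received compound 30 min beforehand at room temperature, 0.5% DMSO final. Triplicates fitted for IC50, maximal inhibition and Hill slope.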

Assay [2] addresses T1, P2X4. Briefly: Assay B: human P2X4 receptor cell line, mitochondrial photina luminescence (agonist Bz-ATP at EC50). It counts as cell-based. Also noted: host or cells: HEK 293 (recombinant, constitutively expressing; with mitochondrial photina in Assay B). The conditions noted are these: for Emax: read-out: human P2X4 Assay B avg Efficacy. In a few lines: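 Bz-ATP at its EC50 activates human P2X4 stably expressed in a cell line that also carries the calcium-sensitive photoprotein mitochondrial photina (coelenterazine cofactor). Light emitted on calcium influx is measured straight away in a luminometer. Reduced luminescence indicates antagonism.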

The mark [3] stands for this setting: HEK human P2X4 cells, Fluo-8 FLIPR.
Where [4] appears, read: percentage of maximal inhibition, HEK human P2X4 cells, Fluo-8 FLIPR.
Setting [5] is: HEK human P2X4 cell line, photina luminescence, agonist Bz-ATP at EC50, average.

In the case of `NS(=O)(=O)c1cc(NC(=O)Cc2ccccc2Cl)ccc1OCc1ccccc1Cl` [Example 144, N-{4-[(2-Chlorobenzyl)oxy]-3-sulfamoylphenyl}-2-(2-chlorophenyl)acetamide], the half-maximal inhibitory concentration (IC50) (in general, the concentration at which inhibition is half-maximal) stood at 0.086 µM at P2X4 [1] (setting [3]) and 0.129 µM at P2X4 [2] (setting [5]). The Emax at P2X4 [1] (setting [4]) came out at 93%; at P2X4 [2] (setting [5]) it was 76%.
Regarding `NS(=O)(=O)c1cc(NC(=O)Cc2ccccc2Cl)ccc1OCc1cccnc1` [Example 149, 2-(2-Chlorophenyl)-N-[4-(pyridin-3-ylmethoxy)-3-sulfamoylphenyl]acetamide], the IC50 on P2X4 [1] (setting [3]) amounted to 0.045 µM; at P2X4 [2] (setting [5]) it was 0.118 µM. Moreover, the Emax on P2X4 [1] (setting [4]) is 81%; on P2X4 [2] (setting [5]), 77%.
As for `NS(=O)(=O)c1cc(NC(=O)Cc2ccccc2Cl)ccc1OCc1ccccn1` [Example 150, 2-(2-Chlorophenyl)-N-[4-(pyridin-2-ylmethoxy)-3-sulfamoylphenyl]acetamide], the Emax at P2X4 [1] (setting [4]) turned out to be 96%; on P2X4 [2] (setting [5]) it was 79%.
For the compound `NS(=O)(=O)c1cc(NC(=O)Cc2ccccc2Cl)ccc1OCc1ccncc1` [Example 151, 2-(2-Chlorophenyl)-N-[4-(pyridin-4-ylmethoxy)-3-sulfamoylphenyl]acetamide], the IC50 on P2X4 [1] (setting [3]) was 0.143 µM; on P2X4 [2] (setting [5]), 0.069 µM. Also, the Emax is 88% at P2X4 [1] (setting [4]) and 97% on P2X4 [2] (setting [5]).
As to `NS(=O)(=O)c1cc(NC(=O)Cc2ccccc2Cl)ccc1OCCc1ccccc1` [Example 155, 2-(2-Chlorophenyl)-N-[4-(2-phenylethoxy)-3-sulfamoylphenyl]acetamide], the Emax on P2X4 [1] (setting [4]) is 87%; at P2X4 [2] (setting [5]) it was 65%.
For `NS(=O)(=O)c1cc(NC(=O)Cc2ccccc2Cl)ccc1OCC1CCC1` [Example 157, 2-(2-Chlorophenyl)-N-[4-(cyclobutylmethoxy)-3-sulfamoylphenyl]acetamide], in that order: 67% and 55%.
The matching figures for `NS(=O)(=O)c1cc(NC(=O)Cc2ccccc2Cl)ccc1OCC1CCO1` (stereo not shown) [Example 158, 2-(2-Chlorophenyl)-N-[4-(oxetan-2-ylmethoxy)-3-sulfamoylphenyl]acetamide]: 91% and 75%.
Take `NS(=O)(=O)c1cc(NC(=O)Cc2ccccc2Cl)ccc1OCC1CCCOC1` (stereo not shown) [Example 165, 2-(2-Chlorophenyl)-N-[3-sulfamoyl-4-(tetrahydro-2H-pyran-3-ylmethoxy)phenyl]acetamide]: the results for the IC50 at P2X4 [1] (setting [3]) and on P2X4 [2] (setting [5]) were 0.162 µM and 0.097 µM, respectively. Moreover, the Emax at P2X4 [1] (setting [4]) was determined as 59%; on P2X4 [2] (setting [5]), 43%.
As to `NS(=O)(=O)c1cc(NC(=O)Cc2cccc(F)c2Cl)ccc1OCC1CCOCC1` [Example 167, 2-(2-Chloro-3-fluorophenyl)-N-[3-sulfamoyl-4-(tetrahydro-2H-pyran-4-ylmethoxy)phenyl]acetamide], the Emax on P2X4 [1] (setting [4]) turned out to be 87%; at P2X4 [2] (setting [5]), 80%.
Take `NS(=O)(=O)c1cc(NC(=O)Cc2ccccc2Cl)cnc1Oc1cccc(C(F)(F)F)c1` [Example 168, 2-(2-chlorophenyl)-N-{5-sulfamoyl-6-[3-(trifluoromethyl)phenoxy]pyridin-3-yl}acetamide]: the half-inhibitory concentration (IC50) came to 0.086 µM at P2X4 [1] (setting [3]) and 0.181 µM on P2X4 [2] (setting [5]). Besides, the values for the Emax at P2X4 [1] (setting [4]) and at P2X4 [2] (setting [5]) were 90% and 85%, respectively.
Take `NS(=O)(=O)c1cc(NC(=O)Cc2ccccc2)cnc1Oc1cccc(C(F)(F)F)c1` [Example 169, 2-Phenyl-N-{5-sulfamoyl-6-[3-(trifluoromethyl)phenoxy]pyridin-3-yl}acetamide]: the IC50 on P2X4 [1] (setting [3]) is 0.274 µM; on P2X4 [2] (setting [5]), 1.03 µM. Besides, the Emax at P2X4 [1] (setting [4]) amounted to 74%; on P2X4 [2] (setting [5]) it was 75%.
`NS(=O)(=O)c1cc(NC(=O)Cc2ccccc2Cl)ccc1Oc1cccc(N2CCOCC2=O)c1` [Example 173, 2-(2-Chlorophenyl)-N-{4-[3-(3-oxomorpholin-4-yl)phenoxy]-3-sulfamoylphenyl}acetamide]: the Emax worked out at 100% at P2X4 [1] (setting [4]) and 92% at P2X4 [2] (setting [5]).
For `NS(=O)(=O)c1cc(NC(=O)Cc2ccccc2Cl)ccc1Oc1ccc(N2CCOCC2=O)cc1` [Example 174, 2-(2-Chlorophenyl)-N-{4-[4-(3-oxomorpholin-4-yl)phenoxy]-3-sulfamoylphenyl}acetamide], in that order: 74% and 64%.
As to `NS(=O)(=O)c1cc(NC(=O)Cc2ccccc2Cl)ccc1Oc1ccc(N2CCCCC2=O)cc1` [Example 175, 2-(2-Chlorophenyl)-N-{4-[4-(2-oxopiperidin-1-yl)phenoxy]-3-sulfamoylphenyl}acetamide], the IC50 worked out at 1.3 µM at P2X4 [1] (setting [3]) and 15 µM on P2X4 [2] (setting [5]). The Emax on P2X4 [1] (setting [4]) turned out to be 52%; on P2X4 [2] (setting [5]) it was 67%.
For `NS(=O)(=O)c1cc(NC(=O)Cc2ccccc2Cl)ccc1Oc1cccc(N2CCCCC2=O)c1` [Example 176, 2-(2-Chlorophenyl)-N-{4-[3-(2-oxopiperidin-1-yl)phenoxy]-3-sulfamoylphenyl}acetamide], in that order: 0.459 µM, 0.88 µM, 82% and 53%.
The matching figures for `C=C(C)c1cccc(Oc2ccc(NC(=O)Cc3ccccc3Cl)cc2S(N)(=O)=O)c1` [Example 177, 2-(2-Chlorophenyl)-N-{4-[3-(prop-1-en-2-yl)phenoxy]-3-sulfamoylphenyl}acetamide]: 0.265 µM, 0.97 µM, 80% and 69%.
On to `C=C(C)c1ccccc1Oc1ccc(NC(=O)Cc2ccccc2Cl)cc1S(N)(=O)=O` [Example 178, 2-(2-Chlorophenyl)-N-{4-[2-(prop-1-en-2-yl)phenoxy]-3-sulfamoylphenyl}acetamide], for which the IC50 on P2X4 [1] (setting [3]) came out at 0.392 µM; at P2X4 [2] (setting [5]), 0.49 µM. For the same compound, the figures for the Emax at P2X4 [1] (setting [4]) and at P2X4 [2] (setting [5]) were 76% and 56%, respectively.
Take `Cc1ccc(CC(=O)Nc2ccc(Oc3cccc(Cl)c3)c(S(N)(=O)=O)c2)cc1` [Example 179, N-[4-(3-Chlorophenoxy)-3-sulfamoylphenyl]-2-(4-methylphenyl)acetamide]: the Emax came to 69% on P2X4 [1] (setting [4]) and 65% on P2X4 [2] (setting [5]).
As for `NS(=O)(=O)c1cc(NC(=O)Cc2ccc(Cl)cc2)ccc1Oc1cccc(Cl)c1` [Example 180, N-[4-(3-Chlorophenoxy)-3-sulfamoylphenyl]-2-(4-chlorophenyl)acetamide], the Emax at P2X4 [1] (setting [4]) was found to be 76%; on P2X4 [2] (setting [5]) it was 63%.
Regarding `COc1cccc(CC(=O)Nc2ccc(Oc3cccc(Cl)c3)c(S(N)(=O)=O)c2)c1` [Example 191, N-[4-(3-Chlorophenoxy)-3-sulfamoylphenyl]-2-(3-methoxyphenyl)acetamide], the IC50 on P2X4 [1] (setting [3]) amounted to 0.05 µM; on P2X4 [2] (setting [5]), 0.149 µM. The Emax is 85% at P2X4 [1] (setting [4]) and 72% at P2X4 [2] (setting [5]).
`COc1ccccc1CC(=O)Nc1ccc(Oc2cccc(Cl)c2)c(S(N)(=O)=O)c1` [Example 192, N-[4-(3-Chlorophenoxy)-3-sulfamoylphenyl]-2-(2-methoxyphenyl)acetamide]: the Emax came out at 86% at P2X4 [1] (setting [4]) and 68% at P2X4 [2] (setting [5]).
Take `CC(C(=O)Nc1ccc(Oc2cccc(Cl)c2)c(S(N)(=O)=O)c1)c1ccccc1Cl` (stereo not shown) [Example 196, N-[4-(3-Chlorophenoxy)-3-sulfamoylphenyl]-2-(2-chlorophenyl)propanamide]: the values for the Emax on P2X4 [1] and at P2X4 [2] were 82% and 71%, respectively.
As to `NS(=O)(=O)c1cc(NC(=O)Cc2ccccc2Cl)ccc1OC1CCCCC1` [Example 200, 2-(2-Chlorophenyl)-N-[4-(cyclohexyloxy)-3-sulfamoylphenyl]acetamide], the figures for the Emax on P2X4 [1] (setting [4]) and at P2X4 [2] (setting [5]) were 86% and 83%, respectively.
For `COCCN(C)C(=O)c1cccc(CC(=O)Nc2ccc(Oc3cccc(Cl)c3)c(S(N)(=O)=O)c2)c1` [Example 208, 3-(2-{[4-(3-Chlorophenoxy)-3-sulfamoylphenyl]amino}-2-oxoethyl)-N-(2-methoxyethyl)-N-methylbenzamide], the IC50 came to 0.038 µM on P2X4 [1] (setting [3]) and 0.552 µM at P2X4 [2] (setting [5]). Moreover, the Emax on P2X4 [1] (setting [4]) came out at 87%; at P2X4 [2] (setting [5]), 67%.
For `N#Cc1ccc(CC(=O)Nc2ccc(Oc3cccc(Cl)c3)c(S(N)(=O)=O)c2)cc1` [Example 224, N-[4-(3-Chlorophenoxy)-3-sulfamoylphenyl]-2-(4-cyanophenyl)acetamide], in that order: 0.345 µM, 0.623 µM, 78% and 61%.
